From patent publication US20070010671A1, “Novel quinazoline derivatives and methods of treatment related to the use thereof” (priority 2003, published 2007)

These compounds were tested against MCH receptor (Homo sapiens, UniProt Q99705) (assay: High throughput functional screening FLIPR/FDSS6000: inhibition of MCH-evoked intracellular Ca2+ changes). Conditions: class by percent of control at 10^-7 M or IC50.
Type: cell-based
In short: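 Fluo4 fluorescence (Ex 488 nm, Em 530 nm) tracked MCH-evoked [Ca2+]i transients over 290 s by FLIPR or FDSS. Cells carried a constitutively active, non-endogenous receptor version. Compounds were added 3 min before a 50 nM MCH challenge.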
`CCCNC(=S)NC[C@H]1CC[C@@H](Nc2nc(N(C)C)c3ccccc3n2)CC1` [compound 617] was tested, and the class was 3 (Class 3: The value of percent of control at 10^−7 M was more than 60% or the value of IC50 was more than 200 nM.). In the case of `CN(C)c1nc(N[C@H]2CC[C@@H](CNC(=S)Nc3cccc(C(F)(F)F)c3)CC2)nc2ccccc12` [compound 618], the class is reported as 3 (Class 3: The value of percent of control at 10^−7 M was more than 60% or the value of IC50 was more than 200 nM.). With `COc1cc(NC(=S)NC[C@H]2CC[C@@H](Nc3nc(N(C)C)c4ccccc4n3)CC2)cc(OC)c1OC` [compound 619] the class was 3 (Class 3: The value of percent of control at 10^−7 M was more than 60% or the value of IC50 was more than 200 nM.). For `Cc1ccc(NC(=S)NC[C@H]2CC[C@@H](Nc3nc(N(C)C)c4ccccc4n3)CC2)cc1` [compound 621], the class was 3 (Class 3: The value of percent of control at 10^−7 M was more than 60% or the value of IC50 was more than 200 nM.). For `Cc1ccccc1NC(=S)NC[C@H]1CC[C@@H](Nc2nc(N(C)C)c3ccccc3n2)CC1` [compound 622], the class was 3 (Class 3: The value of percent of control at 10^−7 M was more than 60% or the value of IC50 was more than 200 nM.). In the case of `CN(C)c1nc(N[C@H]2CC[C@@H](CNC(=S)NC(C)(C)C)CC2)nc2ccccc12` [compound 623], the class is reported as 3 (Class 3: The value of percent of control at 10^−7 M was more than 60% or the value of IC50 was more than 200 nM.). `CN(C)c1nc(N[C@H]2CC[C@@H](CNC(=S)Nc3ccccc3Br)CC2)nc2ccccc12` [compound 625] was tested, and the class was 3 (Class 3: The value of percent of control at 10^−7 M was more than 60% or the value of IC50 was more than 200 nM.). In the case of `CN(C)c1nc(N[C@H]2CC[C@@H](CNC(=S)Nc3ccccc3Cl)CC2)nc2ccccc12` [compound 626], the class is reported as 3 (Class 3: The value of percent of control at 10^−7 M was more than 60% or the value of IC50 was more than 200 nM.). `CN(C)c1nc(N[C@H]2CC[C@@H](CNC(=S)NCCc3ccccc3)CC2)nc2ccccc12` [compound 627] was tested, and the class was 3 (Class 3: The value of percent of control at 10^−7 M was more than 60% or the value of IC50 was more than 200 nM.). In the case of `COc1ccc(NC(=S)NC[C@H]2CC[C@@H](Nc3nc(N(C)C)c4ccccc4n3)CC2)cc1OC` [compound 628], the class is reported as 3 (Class 3: The value of percent of control at 10^−7 M was more than 60% or the value of IC50 was more than 200 nM.). `CCc1ccc(NC(=S)NC[C@H]2CC[C@@H](Nc3nc(N(C)C)c4ccccc4n3)CC2)cc1` [compound 629] was tested, and the class was 3 (Class 3: The value of percent of control at 10^−7 M was more than 60% or the value of IC50 was more than 200 nM.). In the case of `CSc1ccccc1NC(=S)NC[C@H]1CC[C@@H](Nc2nc(N(C)C)c3ccccc3n2)CC1` [compound 630], the class is reported as 3 (Class 3: The value of percent of control at 10^−7 M was more than 60% or the value of IC50 was more than 200 nM.). In the case of `CN(C)c1nc(N[C@H]2CC[C@@H](CNC(=S)Nc3ccccc3OC(F)(F)F)CC2)nc2ccccc12` [compound 631], the class is reported as 2 (Class 2: The value of percent of control at 10^−7 M was from 40% to 60% or the value of IC50 was from 50 nM to 200 nM.). With `CN(C)c1nc(N[C@H]2CC[C@@H](CNC(=S)Nc3ccccc3C(F)(F)F)CC2)nc2ccccc12` [compound 632] the class was 3 (Class 3: The value of percent of control at 10^−7 M was more than 60% or the value of IC50 was more than 200 nM.). For `CN(C)c1nc(N[C@H]2CC[C@@H](CNC(=S)Nc3ccc(F)c(F)c3F)CC2)nc2ccccc12` [compound 633, N-[(cis-4-{[4-(dimethylamino)quinazolin-2-yl]amino}cyclohexyl)methyl]-N′-(2,3,4-trifluorophenyl)thiourea], the class was 2 (Class 2: The value of percent of control at 10^−7 M was from 40% to 60% or the value of IC50 was from 50 nM to 200 nM.). `CN(C)c1nc(N[C@H]2CC[C@@H](CNC(=S)Nc3cccc(Cl)c3Cl)CC2)nc2ccccc12` [compound 634] was tested, and the class was 3 (Class 3: The value of percent of control at 10^−7 M was more than 60% or the value of IC50 was more than 200 nM.). `CN(C)c1nc(N[C@H]2CC[C@@H](CNC(=S)Nc3ccc(F)cc3F)CC2)nc2ccccc12` [compound 635] was tested, and the class was 3 (Class 3: The value of percent of control at 10^−7 M was more than 60% or the value of IC50 was more than 200 nM.). In the case of `COc1ccc(OC)c(NC(=S)NC[C@H]2CC[C@@H](Nc3nc(N(C)C)c4ccccc4n3)CC2)c1` [compound 636], the class is reported as 3 (Class 3: The value of percent of control at 10^−7 M was more than 60% or the value of IC50 was more than 200 nM.). With `CN(C)c1nc(N[C@H]2CC[C@@H](CNC(=S)Nc3c(F)cccc3F)CC2)nc2ccccc12` [compound 637] the class was 3 (Class 3: The value of percent of control at 10^−7 M was more than 60% or the value of IC50 was more than 200 nM.). In the case of `CN(C)c1nc(N[C@H]2CC[C@@H](CNC(=S)Nc3ccc([N+](=O)[O-])cc3Cl)CC2)nc2ccccc12` [compound 638], the class is reported as 3 (Class 3: The value of percent of control at 10^−7 M was more than 60% or the value of IC50 was more than 200 nM.). `CN(C)c1nc(N[C@H]2CC[C@@H](CNC(=S)Nc3ccccc3OC(F)F)CC2)nc2ccccc12` [compound 639] was tested, and the class was 3 (Class 3: The value of percent of control at 10^−7 M was more than 60% or the value of IC50 was more than 200 nM.). In the case of `CCc1ccccc1NC(=S)NC[C@H]1CC[C@@H](Nc2nc(N(C)C)c3ccccc3n2)CC1` [compound 640, N-[(cis-4-{[4-(dimethylamino)quinazolin-2-yl]amino}cyclohexyl)methyl]-N′-(2-ethylphenyl)thiourea], the class is reported as 2 (Class 2: The value of percent of control at 10^−7 M was from 40% to 60% or the value of IC50 was from 50 nM to 200 nM.). `CN(C)c1nc(N[C@H]2CC[C@@H](CNC(=S)Nc3cc(C(F)(F)F)ccc3F)CC2)nc2ccccc12` [compound 641] was tested, and the class was 3 (Class 3: The value of percent of control at 10^−7 M was more than 60% or the value of IC50 was more than 200 nM.). With `CN(C)c1nc(N[C@H]2CC[C@@H](CNC(=S)Nc3ccccc3F)CC2)nc2ccccc12` [compound 642] the class was 3 (Class 3: The value of percent of control at 10^−7 M was more than 60% or the value of IC50 was more than 200 nM.). In the case of `CN(C)c1nc(N[C@H]2CC[C@@H](CNC(=S)Nc3ccccc3I)CC2)nc2ccccc12` [compound 643], the class is reported as 3 (Class 3: The value of percent of control at 10^−7 M was more than 60% or the value of IC50 was more than 200 nM.). `COc1cc([N+](=O)[O-])ccc1NC(=S)NC[C@H]1CC[C@@H](Nc2nc(N(C)C)c3ccccc3n2)CC1` [compound 644] was tested, and the class was 3 (Class 3: The value of percent of control at 10^−7 M was more than 60% or the value of IC50 was more than 200 nM.). For `COc1ccc(C)cc1NC(=S)NC[C@H]1CC[C@@H](Nc2nc(N(C)C)c3ccccc3n2)CC1` [compound 645], the class was 3 (Class 3: The value of percent of control at 10^−7 M was more than 60% or the value of IC50 was more than 200 nM.). In the case of `CN(C)c1nc(N[C@H]2CC[C@@H](CNC(=S)Nc3cccc(SC(F)(F)F)c3)CC2)nc2ccccc12` [compound 646], the class is reported as 3 (Class 3: The value of percent of control at 10^−7 M was more than 60% or the value of IC50 was more than 200 nM.). With `CN(C)c1nc(N[C@H]2CC[C@@H](CNC(=S)Nc3cc(Cl)cc(Cl)c3)CC2)nc2ccccc12` [compound 647] the class was 3 (Class 3: The value of percent of control at 10^−7 M was more than 60% or the value of IC50 was more than 200 nM.). For `CN(C)c1nc(N[C@H]2CC[C@@H](CNC(=S)Nc3cc(F)cc(F)c3)CC2)nc2ccccc12` [compound 648], the class was 3 (Class 3: The value of percent of control at 10^−7 M was more than 60% or the value of IC50 was more than 200 nM.). In the case of `CN(C)c1nc(N[C@H]2CC[C@@H](CNC(=S)Nc3cccc(C#N)c3)CC2)nc2ccccc12` [compound 649, N-(3-ciyanophenyl)-N′-[(cis-4-{[4-(dimethylamino)quinazolin-2-yl]amino}cyclohexyl)methyl]thiourea], the class is reported as 3 (Class 3: The value of percent of control at 10^−7 M was more than 60% or the value of IC50 was more than 200 nM.). In the case of `CN(C)c1nc(N[C@H]2CC[C@@H](CNC(=S)Nc3cccc(F)c3)CC2)nc2ccccc12` [compound 650], the class is reported as 3 (Class 3: The value of percent of control at 10^−7 M was more than 60% or the value of IC50 was more than 200 nM.). `CN(C)c1nc(N[C@H]2CC[C@@H](CNC(=S)Nc3cccc(I)c3)CC2)nc2ccccc12` [compound 651] was tested, and the class was 3 (Class 3: The value of percent of control at 10^−7 M was more than 60% or the value of IC50 was more than 200 nM.). With `COc1cccc(NC(=S)NC[C@H]2CC[C@@H](Nc3nc(N(C)C)c4ccccc4n3)CC2)c1` [compound 652] the class was 3 (Class 3: The value of percent of control at 10^−7 M was more than 60% or the value of IC50 was more than 200 nM.). In the case of `CN(C)c1nc(N[C@H]2CC[C@@H](CNC(=S)Nc3ccc(OC(F)F)cc3)CC2)nc2ccccc12` [compound 653], the class is reported as 3 (Class 3: The value of percent of control at 10^−7 M was more than 60% or the value of IC50 was more than 200 nM.). For `CN(C)c1nc(N[C@H]2CC[C@@H](CNC(=S)Nc3ccc(OC(F)(F)F)cc3)CC2)nc2ccccc12` [compound 654], the class was 3 (Class 3: The value of percent of control at 10^−7 M was more than 60% or the value of IC50 was more than 200 nM.). For `CN(C)c1nc(N[C@H]2CC[C@@H](CNC(=S)Nc3ccc(C(F)(F)F)cc3)CC2)nc2ccccc12` [compound 655], the class was 3 (Class 3: The value of percent of control at 10^−7 M was more than 60% or the value of IC50 was more than 200 nM.). `CN(C)c1nc(N[C@H]2CC[C@@H](CNC(=S)Nc3ccc(SC(F)(F)F)cc3)CC2)nc2ccccc12` [compound 656] was tested, and the class was 3 (Class 3: The value of percent of control at 10^−7 M was more than 60% or the value of IC50 was more than 200 nM.). With `CN(C)c1nc(N[C@H]2CC[C@@H](CNC(=S)Nc3ccc(Br)cc3Cl)CC2)nc2ccccc12` [compound 657] the class was 3 (Class 3: The value of percent of control at 10^−7 M was more than 60% or the value of IC50 was more than 200 nM.). With `CN(C)c1nc(N[C@H]2CC[C@@H](CNC(=S)Nc3ccc(Br)cc3F)CC2)nc2ccccc12` [compound 658] the class was 3 (Class 3: The value of percent of control at 10^−7 M was more than 60% or the value of IC50 was more than 200 nM.).
